Data on three compounds can be found in PMC5679103 (Journal of natural products, 2017).

Molecules are shown by their SMILES.

One series relates to P. falciparum Dd2 strain. As to the kind of experiment: Antiplasmodial 72 h growth assay. It is filed as cell-based, Plasmodium falciparum. Particulars: relative to trichospirolide B (2).
A short description of another series: Stability on storage. It is filed as physicochemical. As to conditions: storage at −23 °C.

In the case of `C=C(C)C(=O)O[C@H]1C/C(C)=C\C(=O)C[C@@]2(C)O[C@H]2[C@H]2OC(=O)C(COC(C)=O)=C12` [Compound 3, 1(10)Z,7(11)Z-(4R,5S,6S,8S)-13-acetoxy-4,5-epoxy-8-methacryloyloxy-2-oxogermacra-1,7-dien-6,12-olide], the “Fold higher antiplasmodial potency than trichospirolide B” value in the series with P. falciparum Dd2 strain is 3 fold.
The same measure, in the same setting: the result for `C=C(C)C(=O)O[C@H]1C/C(C)=C\C(=O)/C=C(C)/C=C2/OC(=O)C(COC(C)=O)=C21` [Compound 1, 1(10)Z,3E,5E,7(12)Z-(8S)-13-acetoxy-8-methacryloyloxy-2-oxogermacra-1,3,5,7-tetraen-6,12-olide] reads 25 fold.
For `C=C(C)C(=O)O[C@@H]1C/C(C)=C\[C@@]2(O)C=C(C)[C@H](O2)[C@H]2OC(=O)C(COC(C)=O)=C12` [Compound 4, 1(10)Z,3Z,7(11)Z-(2S,5S,6S,8R)-13-acetoxy-2,5-epoxy-2-hydroxy-8-O-methacryloyloxygermacra-1(10),3,7(11)-trien-6,12-olide], in the series “Stability on storage”, the Stability on storage entry is “moderately unstable”.
